# Experimental data as given in patent publication US7727977B2, “Kynurenine 3-hydroxylase inhibitors for the treatment of diabetes” (Merck Patent Gesellschaft mit beschrankter Haftung, priority 2003, dated 2010).
# Marks after values point to notes of the source that are not given here.
# Assays:
# kynurenine 3-hydroxylase = target: T1, kynurenine 3-hydroxylase (Rattus norvegicus, UniProt O88867); assay: Inhibitory activity on kynurenine 3-hydroxylase in rat liver homogenate; assay type: biochemical; conditions: test concentration not given
# T1 construct: incubating 10 μL of the homogenate with NADPH (2 mM), kynurenine (100 μM); from tissue; host or cells: rat liver (pellet of the homogenate, resuspended)
# T1 sequence (O88867 whole entry): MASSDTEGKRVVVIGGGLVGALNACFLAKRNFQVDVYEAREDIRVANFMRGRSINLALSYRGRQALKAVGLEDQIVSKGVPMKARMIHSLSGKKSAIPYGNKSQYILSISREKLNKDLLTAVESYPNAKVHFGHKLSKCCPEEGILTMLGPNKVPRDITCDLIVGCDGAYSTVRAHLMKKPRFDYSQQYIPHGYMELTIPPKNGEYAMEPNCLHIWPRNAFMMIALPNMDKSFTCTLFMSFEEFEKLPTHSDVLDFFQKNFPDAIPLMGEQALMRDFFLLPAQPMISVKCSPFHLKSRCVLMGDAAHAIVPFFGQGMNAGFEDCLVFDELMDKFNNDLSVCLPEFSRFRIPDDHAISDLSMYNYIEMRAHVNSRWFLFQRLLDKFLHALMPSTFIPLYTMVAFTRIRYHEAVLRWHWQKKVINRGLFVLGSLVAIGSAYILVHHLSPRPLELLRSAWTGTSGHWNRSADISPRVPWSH
# Experimental: Study of the Inhibitory Activity on Kynurenine 3-hydroxylase in Rat Liver
# Rat livers are homogenised (1:8 weight/volume) in a buffer solution comprising: • 0.25 M sucrose • 50 mM pH 7.4 Tris; • 1 mM EDTA; and • 1 mM DTT.
# The homogenates are centrifuged for 10 minutes at 12 000 rpm. The pellets are resuspended in the buffer solution described above (1:2 weight/volume).
# The kynurenine 3-hydroxylase inhibition is determined by incubating 10 μL of the homogenate with NADPH (2 mM), kynurenine (100 μM) and various concentrations of the test compounds in a final volume of 100 μL at 37° C. for 5 minutes.
# The compounds are tested at concentrations of between 1 μM and 300 μM. 3,4-Dimethoxy-N-[4-(3-nitrophenyl)thiazol-2-yl]benzenesulfonamide is a compound from the company Hoffmann-LaRoche (Basle, see J. Med. Chem., 40 (1997), 4738). 30H-Kynurenine was tested according to the protocol described by Carpendo et al. (Neuroscience, 61 (1994), 237-244).
# Each of the experiments is repeated once and the IC50 values (in μmol/L) are calculated and given in the form of a mean of these two experiments.
# Results concerning representative examples of family Ih are given in Table II below, in which is indicated the measurement of the percentage of remaining kynurenine 3-hydroxylase activity relative to the control (100%).
# primary hepatocytes = assay: Hepatic glucose production, basal lactate/pyruvate 2 hours, in primary hepatocytes; assay type: cell-based, Wistar rats; set-up: Hepatic glucose production: unit not given here; conditions: for hepatic glucose production in vitro (result in words): primary rat hepatocytes, summary of Tables III and IV
# Experimental: Study of the Effect on Glucose Production by the Liver Materials and Method:
# After washing in pH 7.4 PBS buffer, the cells are incubated for two hours at 37° C. in a Krebs buffer free of glucose and of insulin, containing lactate/pyruvate (10/1 mM) in the presence or absence of the test compounds. 10 μM MICA (5-methoxyindole-2-carboxylic acid) is used as reference substance. Two identical experiments are performed (Table III-2).
# The protein assay is performed on the rest of the incubation medium via the Lowry method (BIO-RAD Dc protein assay, BIO-RAD 5000116).
# The results are expressed as nmoles of glucose produced per […] of proteins. The statistical test used is the t test.
# [1] = system: perfused isolated pancreases from N0 STZ diabetic rats; assay: Secretion of insulin and glucagon in perfused isolated pancreases from N0 STZ diabetic rats; assay type: cell-based; conditions: absence of glucose, then 16.5 mM glucose; diabetic rat pancreas
# Description: Study of the Effect on the Secretion of the Pancreatic Hormones Insulin and Glucagon, in N0STZ Diabetic Rats
# The results are expressed as the mean±SEM (standard error of mean) of several experiments. The statistical test used is the Scheffé test.
Compound,Remaining kynurenine 3-hydroxylase activity (% of control) (kynurenine 3-hydroxylase),further results
2-(2′-naphthylthio)-4-(4′-chlorophenyl)-4-oxobutanoic acid [Ih-30],24.3%,–
"O=C(C[C@@H](Cc1ccccc1)C(=O)O)c1ccc(Cl)c(Cl)c1 (racemic) [Compound j, (R,S)-2-benzyl-4-(3′,4′-dichlorophenyl)-4-oxobutanoic acid]",–,Inhibition of hepatic glucose production (primary hepatocytes; 1 μM): 30** %; Inhibition of hepatic glucose production (primary hepatocytes; 10 μM): 51** %; Inhibition of hepatic glucose production (primary hepatocytes; 100 μM): 65** %; hepatic glucose production in vitro (result in words) (primary hepatocytes): powerful inhibitors of hepatic glucose production in vitro
"O=C(C[C@@H](Cc1ccccc1)C(=O)O)c1ccc(F)cc1 [Compound i, (R)-2-benzyl-4-(4-fluorophenyl)-4-oxobutanoic acid]",–,Hepatic glucose production (primary hepatocytes; 1 μM): 88 ± 7; Hepatic glucose production (primary hepatocytes; 10 μM): 73 ± 4; Hepatic glucose production (primary hepatocytes; 100 μM): 39 ± 3; hepatic glucose production in vitro (result in words) (primary hepatocytes): powerful inhibitors of hepatic glucose production in vitro; glucagon secretion (result in words) [1]: stimulation; insulin secretion (result in words) [1]: stimulation
"COc1ccc(S(=O)(=O)Nc2nc(-c3cccc([N+](=O)[O-])c3)cs2)cc1OC [Compound k, 3,4-dimethoxy-N-[4-(3-nitrophenyl)thiazol-2-yl]benzenesulfonamide, reference compound]",–,glucagon secretion (result in words) [1]: stimulation; insulin secretion (result in words) [1]: stimulation
"O=C(CC(Sc1ccccc1)C(=O)O)c1ccccc1 (stereo not shown) [Ih-2, 2-phenylthio-4-phenyl-4-oxobutanoic acid]",70.4%,–
"O=C(CC(Sc1ccc(F)cc1)C(=O)O)c1ccccc1 (stereo not shown) [Ih-3, 2-(4′-fluorophenylthio)-4-phenyl-4-oxobutanoic acid]",50.4%,–
"O=C(CC(Sc1ccc(Cl)cc1)C(=O)O)c1ccccc1 (stereo not shown) [Ih-4, 2-(4′-chlorophenylthio)-4-phenyl-4-oxobutanoic acid]",34.8%,–
"Cc1ccc(SC(CC(=O)c2ccccc2)C(=O)O)cc1 (stereo not shown) [Ih-5, 2-(4′-methylphenylthio)-4-phenyl-4-oxobutanoic acid]",45.4%,–
"O=C(CC(SC1CCCCC1)C(=O)O)c1ccccc1 (stereo not shown) [Ih-7, 2-cyclohexylthio-4-phenyl-4-oxobutanoic acid]",81.3%,–
"O=C(CC(SCc1ccccc1)C(=O)O)c1ccccc1 (stereo not shown) [Ih-8, 2-benzylthio-4-phenyl-4-oxobutanoic acid]",68.6%,–
"CCOC(=O)C(CC(=O)c1ccccc1)Sc1ccccc1 (stereo not shown) [Ih-9, ethyl 2-phenylthio-4-phenyl-4-oxobutanoate]",80.8%,–
"CCOC(=O)C(CC(=O)c1ccccc1)Sc1ccc(F)cc1 (stereo not shown) [Ih-10, ethyl 2-(4′-fluorophenylthio)-4-phenyl-4-oxobutanoate]",66.7%,–
"CCOC(=O)C(CC(=O)c1ccccc1)Sc1ccc(Cl)cc1 (stereo not shown) [Ih-11, ethyl 2-(4′-chlorophenylthio)-4-phenyl-4-oxobutanoate]",44.6%,–
"CCOC(=O)C(CC(=O)c1ccccc1)Sc1ccc(C)cc1 (stereo not shown) [Ih-12, ethyl 2-(4′-methylphenylthio)-4-phenyl-4-oxobutanoate]",63.3%,–
"CCOC(=O)C(CC(=O)c1ccccc1)Sc1ccc(OC)cc1 (stereo not shown) [Ih-13, ethyl 2-(4′-methoxyphenylthio)-4-phenyl-4-oxobutanoate]",55.2%,–
"CCOC(=O)C(CC(=O)c1ccccc1)SC1CCCCC1 (stereo not shown) [Ih-15, ethyl 2-cyclohexylthio-4-phenyl-4-oxobutanoate]",95.0%,–

Compound,Remaining kynurenine 3-hydroxylase activity (% of control) (kynurenine 3-hydroxylase),further results
"CCOC(=O)C(CC(=O)c1ccccc1)SCc1ccccc1 (stereo not shown) [Ih-16, ethyl 2-benzylthio-4-phenyl-4-oxobutanoate]",84.4%,–
"COc1ccc(C(=O)CC(Sc2ccccc2)C(=O)O)cc1 (stereo not shown) [Ih-17, 2-phenylthio-4-(4′-methoxyphenyl)-4-oxobutanoic acid]",16.0%,–
"COc1ccc(C(=O)CC(Sc2ccc(F)cc2)C(=O)O)cc1 (stereo not shown) [Ih-18, 2-(4′-fluorophenylthio)-4-(4′-methoxyphenyl)-4-oxobutanoic acid]",6.6%,–
"COc1ccc(C(=O)CC(Sc2ccc(Cl)cc2)C(=O)O)cc1 (stereo not shown) [Ih-19, 2-(4′-chlorophenylthio)-4-(4′-methoxyphenyl)-4-oxobutanoic acid]",4.1%,–
"COc1ccc(C(=O)CC(Sc2ccc(C)cc2)C(=O)O)cc1 (stereo not shown) [Ih-20, 2-(4′-methylphenylthio)-4-(4′-methoxyphenyl)-4-oxobutanoic acid]",13.3%,–
"COc1ccc(SC(CC(=O)c2ccc(OC)cc2)C(=O)O)cc1 (stereo not shown) [Ih-21, 2-(4′-methoxyphenylthio)-4-(4′-methoxyphenyl)-4-oxobutanoic acid]",17.4%,–
"COc1ccc(C(=O)CC(SC2CCCCC2)C(=O)O)cc1 (stereo not shown) [Ih-23, 2-cyclohexylthio-4-(4′-methoxyphenyl)-4-oxobutanoic acid]",38.1%,–
"COc1ccc(C(=O)CC(SCc2ccccc2)C(=O)O)cc1 (stereo not shown) [Ih-24, 2-benzylthio-4-(4′-methoxyphenyl)-4-oxobutanoic acid]",18.9%,–
"O=C(CC(Sc1ccccc1)C(=O)O)c1ccc(Cl)cc1 (stereo not shown) [Ih-25, 2-phenylthio-4-(4′-chlorophenyl)-4-oxobutanoic acid]",67.6%,–
"O=C(CC(Sc1ccc(F)cc1)C(=O)O)c1ccc(Cl)cc1 (stereo not shown) [Ih-26, 2-(4′-fluorophenylthio)-4-(4′-chlorophenyl)-4-oxobutanoic acid]",55.5%,–
"O=C(CC(Sc1ccc(Cl)cc1)C(=O)O)c1ccc(Cl)cc1 (stereo not shown) [Ih-27, 2-(4′-chlorophenylthio)-4-(4′-chlorophenyl)-4-oxobutanoic acid]",34.9%,–
"Cc1ccc(SC(CC(=O)c2ccc(Cl)cc2)C(=O)O)cc1 (stereo not shown) [Ih-28, 2-(4′-methylphenylthio)-4-(4′-chlorophenyl)-4-oxobutanoic acid]",50.5%,–
O=C(O)c1cc(=O)c2ccccc2[nH]1 [Kynurenic acid],–,glucagon secretion (result in words) [1]: stimulates; insulin secretion (result in words) [1]: stimulates the secretion of insulin
Nc1ccccc1C(=O)CC(N)C(=O)O (stereo not shown) [Kynurenine],–,hepatic glucose production in vitro (result in words) (primary hepatocytes): powerful inhibitors of hepatic glucose production in vitro; glucagon secretion (result in words) [1]: stimulated; insulin secretion (result in words) [1]: stimulated
ethyl 2-(2′-naphthylthio)-4-phenyl-4-oxobutanoate [Ih-14],30.0%,–
